Data taken from patent US20230227437A1, “IMMUNOMODULATOR” (priority 2020, published 2023).

Assays:
human IL-17A (hIL-17A) = target: T1, human IL-17A (hIL-17A) (Homo sapiens, UniProt Q16552); test: IL-17A enzyme-linked immunosorbent assay (competitive ELISA, receptor-ligand binding)
T1 construct: purchased Sino Biological Inc. 12047-H07B
T1 sequence (Q16552 24-155): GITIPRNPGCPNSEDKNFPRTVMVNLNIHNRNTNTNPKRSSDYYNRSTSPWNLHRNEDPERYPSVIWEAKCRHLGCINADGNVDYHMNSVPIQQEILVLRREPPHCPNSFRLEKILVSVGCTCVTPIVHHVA
Protocol: The inhibition of receptor-ligand binding by human IL-17A (hIL-17A) inhibitors was detected by competitive ELISA. A 96-well plate was inoculated 0.2 μg/ml IL-17 (Sino Biological Inc. Cat #12047-H07B) for incubation at 37° C. for 30 min, 100 μL for per well. The 96-well plate was washed four times with phosphate buffered saline (PBS) containing Tween-20 (PBST, 0.05% Tween-20), 200 μL for per well each time. 200 μL of 5% skim milk were added into the 96-well plate for incubation on a shaker at 25° C. for 30 min. The 96-well plate was washed four times with PBST (0.05% Tween-20), and added with 89 μL of PBST and 1 μL of a compound to be measured (100×), in which a concentration the compound to be measured (100×) was 0.003 μM-30 μM. The mixture was mixed evenly and incubated at 25° C. for 10 min. The mixture was added with 10 μL of 16 nM IL-17R, followed by incubation at 25° C. for 30 min. After washing the 96-well plate 4 times, 100 μL of anti-Fc tag horseradish peroxidase (HRP) coupled antibody were added for incubation on a shaker at 25° C. for 30 min. After washing the 96-well plate 4 times, 100 μL of 3,3′,5,5′-tetramethylbenzidine (TMB) substrate solution were added to the 96-well plate for incubation away from light at 25° C. After addition of 20% HCl, an absorbance was measure by a microplate reader at 450 nm.
The compounds prepared according to the above method were assayed for human IL-17A inhibitory activity.

hIL-17A = target: T2, hIL-17A (Homo sapiens, UniProt Q16552); test: Inhibition of hIL-17A-induced chemokine GROα/CXCL1 production in HT-29 cell; type: cell-based
T2 construct: purchased R&D 317-ILB
T2 sequence (Q16552 20-155 limits assumed): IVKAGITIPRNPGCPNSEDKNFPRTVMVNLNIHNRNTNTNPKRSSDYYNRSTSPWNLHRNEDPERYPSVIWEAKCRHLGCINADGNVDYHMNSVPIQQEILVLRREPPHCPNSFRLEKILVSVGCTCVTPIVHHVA
Protocol: Human colorectal adenocarcinoma cell HT-29 was inoculated to a 96-well plate (5×10^4 for per well), and incubated at 37° C. on an incubator overnight. A mixture of 30 ng/mL hIL-17A protein (R&D, #317-ILB) with gradient concentrations of IL-17A small molecule inhibitors or with 0.3 μg/mL positive control IL-17A antibody (R&D, #AF-317-NA) was incubated for 1 h at 37° C., and added into the 96-well plate to incubated with HT-29 at 37° C. for 48 h. A level of GROα in a cell culture supernatant was then detected using an ELISA kit for GROα (Cisbio, #62HCXC1peg).
Inhibitory effect of the compound prepared in Examples on hIL-17A-induced chemokine GROα/CXCL1 production in HT-29 cell was tested according to the methods of Experimental Examples 1 and 2. […] “-” indicated not tested. According to the results, the compounds provided herein have good human IL-17A inhibitory activity and can be effectively used in the treatment of diseases associated with abnormal hIL-17A activity.

Structure (SMILES)	IC50 (human IL-17A (hIL-17A)) [nM]	IC50 (hIL-17A) [nM]
Cc1n[nH]c(C)c1-c1ccc(NC(=O)[C@@H](NC(=O)c2ccnn2C(C)C)C2c3c(F)ccc(F)c3OCC23CC3)cc1 (stereo partly drawn) [Compound 76]	270	1050
Cc1nonc1C(=O)N[C@H](C(=O)Nc1ccc(-c2c(C)n[nH]c2C)cc1)C1c2ccc(F)cc2CC12CC2 (stereo partly drawn) [Compound 15]	48	71
Cc1n[nH]c(C)c1-c1ccc(NC(=O)[C@@H](NC(=O)c2ccnn2C)C2c3ccccc3CC23CC3)cc1 (stereo partly drawn) [Compound 1]	18	404
Cc1n[nH]c(C)c1-c1ccc(NC(=O)[C@@H](NC(=O)c2ccnn2C(C)C)C2c3cc(F)c(F)cc3OCC23CC3)cn1 (stereo partly drawn) [Compound 62]	151	177
Cc1nonc1C(=O)N[C@H](C(=O)Nc1ccc(-c2c(C)n[nH]c2C)cc1)C1c2c(F)cc(F)cc2OCC12CC2 (stereo partly drawn) [Compound 52]	402	
COCCc1nocc1C(=O)N[C@H](C(=O)Nc1cnc(-c2c(C)n[nH]c2C)c(F)c1)C1c2cc(F)c(F)cc2OCC12CC2 (stereo partly drawn) [Compound 88]	100	
Cc1nonc1C(=O)N[C@H](C(=O)Nc1ccc(-c2c(C)n[nH]c2C)cc1)C1c2c(F)cccc2CC12CC2 (stereo partly drawn) [Compound 14]	59	206
Cc1n[nH]c(C)c1-c1ccc(NC(=O)[C@@H](NC(=O)c2nonc2C2CC2)C2c3ccc(F)cc3OCC23CC3)cn1 (stereo partly drawn) [Compound 95]	94	457
Cc1nonc1C(=O)N[C@H](C(=O)Nc1ccc(-c2c(C)n[nH]c2C)nc1)C1c2cc(F)ccc2OCC12CC2 (stereo partly drawn) [Compound 19]	190	2050
Cc1n[nH]c(C)c1-c1ccc(NC(=O)[C@@H](NC(=O)c2ccnn2C(C)C)C2c3ccc(F)c(F)c3OCC23CC3)cc1 (stereo partly drawn) [Compound 56]	139	355
Cc1n[nH]c(C)c1-c1ccc(NC(=O)[C@@H](NC(=O)c2ccnn2C(C)C)C2c3c(F)cc(F)cc3OCC23CC3)cc1 (stereo partly drawn) [Compound 54]	136	
Cc1n[nH]c(C)c1-c1ccc(NC(=O)[C@@H](NC(=O)c2nonc2C2CC2)C2c3ccc(F)cc3OCC23CC3)cc1 (stereo partly drawn) [Compound 94]	572	695
Cc1n[nH]c(C)c1-c1ccc(NC(=O)[C@@H](NC(=O)c2nonc2C(C)C)C2c3ccc(F)c(F)c3OCC23CC3)cn1 (stereo partly drawn) [Compound 63]	156	605
Cc1nonc1C(=O)N[C@H](C(=O)Nc1ccc(-c2c(C)n[nH]c2C)cc1)C1c2c(F)ccc(F)c2OCC12CC2 (stereo partly drawn) [Compound 81]	2060	
CCc1nonc1C(=O)N[C@H](C(=O)Nc1ccc(-c2c(C)n[nH]c2C)cc1)C1c2cc(F)cc(F)c2OCC12CC2 (stereo partly drawn) [Compound 77]	320	1010
COC(=O)N[C@H](C(=O)Nc1ccc(-c2c(C)n[nH]c2C)cc1)C1c2cc(F)c(F)cc2OCC12CC2 (stereo partly drawn) [Compound 107]	51	383
Cc1n[nH]c(C)c1-c1ccc(NC(=O)[C@@H](NC(=O)c2ccnn2C(C)C)C2c3c(F)ccc(F)c3OCC23CC3)cn1 (stereo partly drawn) [Compound 75]	5000	
CCc1nonc1C(=O)N[C@H](C(=O)Nc1ccc(-c2c(C)n[nH]c2C)cc1)C1c2cc(F)ccc2OCC12CC2 (stereo partly drawn) [Compound 25]	56	194
Cc1nonc1C(=O)N[C@H](C(=O)Nc1cnc(-c2c(C)n[nH]c2C)c(F)c1)C1c2ccc(F)cc2CC12CC2 (stereo partly drawn) [Compound 29]	152	378
Cc1n[nH]c(C)c1-c1ccc(NC(=O)[C@@H](NC(=O)c2conc2C2CC2)C2c3ccc(F)cc3OCC23CC3)cn1 (stereo partly drawn) [Compound 99]	96	213
CCn1nccc1C(=O)N[C@H](C(=O)Nc1ccc(-c2c(C)n[nH]c2C)nc1)C1c2cc(F)ccc2OCC12CC2 (stereo partly drawn) [Compound 21]	66	506
Cc1n[nH]c(C)c1-c1ncc(NC(=O)[C@@H](NC(=O)c2nonc2C2CC2)C2c3cc(F)c(F)cc3OCC23CC3)cc1F (stereo partly drawn) [Compound 92]	187	9650

Structure (SMILES)	IC50 (human IL-17A (hIL-17A)) [nM]	IC50 (hIL-17A) [nM]
CCc1nonc1C(=O)N[C@H](C(=O)Nc1ccc(-c2c(C)n[nH]c2C)cc1)C1c2c(F)cc(F)cc2OCC12CC2 (stereo partly drawn) [Compound 53]	554	
Cc1n[nH]c(C)c1-c1ccc(NC(=O)[C@@H](NC(=O)c2ccnn2C)C2c3ccccc3OCC23CC3)cc1 (stereo partly drawn) [Compound 3]	40	213
Cc1n[nH]c(C)c1-c1ncc(NC(=O)[C@@H](NC(=O)c2nonc2C(C)C)C2c3ccc(F)cc3OCC23CC3)cc1F (stereo partly drawn) [Compound 39]	111	856
Cc1nonc1C(=O)N[C@H](C(=O)Nc1ccc(-c2c(C)n[nH]c2C)nc1)C1c2ccc(F)cc2CC12CC2 (stereo partly drawn) [Compound 32]	75	351
CCc1nonc1C(=O)N[C@H](C(=O)Nc1ccc(-c2c(C)n[nH]c2C)c(F)c1)C1c2ccc(F)cc2OCC12CC2 (stereo partly drawn) [Compound 38]	276	506
Cc1n[nH]c(C)c1-c1ncc(NC(=O)[C@@H](NC(=O)c2conc2C2CC2)C2c3cc(F)c(F)cc3OCC23CC3)cc1F (stereo partly drawn) [Compound 96]	125	134
Cc1n[nH]c(C)c1-c1ccc(NC(=O)[C@@H](NC(=O)C2(F)CC2)C2c3cc(F)c(F)cc3OCC23CC3)cc1 (stereo partly drawn) [Compound 55]	65	228
CCc1nocc1C(=O)N[C@H](C(=O)Nc1ccc(-c2c(C)n[nH]c2C)nc1)C1c2ccc(F)cc2OCC12CC2 (stereo partly drawn) [Compound 34]	120	63
Cc1nonc1C(=O)N[C@H](C(=O)Nc1ccc(-c2c(C)n[nH]c2C)cc1)C1c2cc(F)c(F)cc2OCC12CC2 (stereo partly drawn) [Compound 42]	40	70
Cc1n[nH]c(C)c1-c1ccc(NC(=O)[C@@H](NC(=O)c2nonc2C(C)C)C2c3cc(F)cc(F)c3OCC23CC3)cc1 (stereo partly drawn) [Compound 74]	413	609
Cc1n[nH]c(C)c1-c1ccc(NC(=O)[C@@H](NC(=O)c2nonc2C(C)C)C2c3cc(F)c(F)cc3OCC23CC3)cc1 (stereo partly drawn) [Compound 45]	125	50
Cc1n[nH]c(C)c1-c1ccc(NC(=O)[C@@H](NC(=O)c2ccnn2C(C)C)C2c3cc(F)ccc3OCC23CC3)cn1 (stereo partly drawn) [Compound 20]	61	878
Cc1n[nH]c(C)c1-c1ccc(NC(=O)[C@@H](NC(=O)c2conc2C2CC2)C2c3cc(F)c(F)cc3OCC23CC3)cc1 (stereo partly drawn) [Compound 98]	222	
COCCc1nocc1C(=O)N[C@H](C(=O)Nc1ccc(-c2c(C)n[nH]c2C)cc1)C1c2cc(F)c(F)cc2OCC12CC2 (stereo partly drawn) [Compound 104]	116	
Cc1n[nH]c(C)c1-c1ccc(NC(=O)[C@@H](NC(=O)c2nonc2C(C)C)C2c3c(F)cc(F)cc3OCC23CC3)cn1 (stereo partly drawn) [Compound 66]	7130	
Cc1n[nH]c(C)c1-c1ccc(NC(=O)[C@@H](NC(=O)c2nonc2C(C)C)C2c3c(F)ccc(F)c3OCC23CC3)cn1 (stereo partly drawn) [Compound 79]	32500	
Cn1nccc1C(=O)N[C@H](C(=O)Nc1ccc(N2CCOCC2)nc1)C1c2ccccc2CC12CC2 (stereo partly drawn) [Compound 10]	98	
CCc1nonc1C(=O)N[C@H](C(=O)Nc1ccc(-c2c(C)n[nH]c2C)cc1)C1c2c(F)ccc(F)c2OCC12CC2 (stereo partly drawn) [Compound 78]	985	
Cc1n[nH]c(C)c1-c1ccc(NC(=O)[C@@H](NC(=O)c2c(C(C)C)no[n+]2[O-])C2c3c(F)cc(F)cc3OCC23CC3)cc1 (stereo partly drawn) [Compound 61]	339	
Cc1n[nH]c(C)c1-c1ccc(NC(=O)[C@@H](NC(=O)c2nonc2C(C)C)C2c3c(F)ccc(F)c3OCC23CC3)cc1 (stereo partly drawn) [Compound 82]	2030	
Cc1n[nH]c(C)c1-c1ncc(NC(=O)[C@@H](NC(=O)c2ccnn2C(C)C)C2c3c(F)ccc(F)c3OCC23CC3)cc1F (stereo partly drawn) [Compound 83]	2020	
Cc1n[nH]c(C)c1-c1ncc(NC(=O)[C@@H](NC(=O)c2nonc2C(C)C)C2c3c(F)ccc(F)c3OCC23CC3)cc1F (stereo partly drawn) [Compound 84]	9810	
